From publication PMC5955599, “The HTLV-1 gp21 fusion peptide inhibits antigen specific T-cell activation in-vitro and in mice” (PLoS Pathogens, 2018)
“Also recorded” adds a separate entry of the source.

Key:
[1] = system: MOG35-55–antigen specific T-cells; test: In-vitro T-cell proliferative response (H3-thymidine incorporation); format: cell-based, mouse (C57Bl/6J); settings: peptide at 10μM; for inhibition of T-cell proliferation, activation by PMA and Ionomycin: 50ng/mL PMA with 1μM ionomycin; for inhibition of T-cell proliferation, activation by antibodies against CD3 and CD28: CD3 and CD28 antibodies 2μg/ml; for inhibition of T-cell proliferation, activation by MOG35-55 presenting APCs: irradiated MOG35-55 presenting APCs, mean inhibition of proliferation
[2] = system: MOG35-55–antigen specific T-cells; test: T-bet and Gata3 expression detected by FACS; format: cell-based, mouse (C57Bl/6J); settings: peptide at 10μM, APC activation, n = 3
Description: (A-B) MOG35-55–antigen specific T-cells were activated by irradiated MOG35-55 presenting APCs, in the presence of the HTLV FP at 10μM. Total RNA was isolated 24 hours following activation and mRNA expression levels were determined by qRT-PCR. The values of each gene were normalized to Rpl13a as a housekeeping control. The HTLV FP reduces TBX21 (T-bet) mRNA expression and elevates GATA3 mRNA expression. The data is presented as arbitrary units. n≥3. (C-H) MOG35-55–antigen specific T-cells were activated by irradiated MOG35-55 presenting APCs, in the presence of either HTLV or HIV FP at 10μM. Samples were fixed in 4% PFA and stained with anti T-bet-APC and anti Gata3-FITC antibodies (C-D) 24, (E-F) 48 and (G-H) 72 hours following activation. Each time point is represented as cell count vs. APC or FITC fluorescence histogram. Analysis was performed using LSR-II flow cytometer (BD) and FlowJo cell analysis software (FlowJo, LLC). The HTLV FP reduces T-bet expression and elevates Gata3 expression. n = 3. One-way ANOVA was used for statistical analysis. ns, not significant; *P<0.05;** P<0.01.
Antigen-specific T-cells were plated onto round 12-well plates (10^6 cells/ well) and activated with 5x10^5 irradiated (25 gray) APC and 5μg/ml of MOG p35-55 in the presence or absence of relevant peptides. Cells were washed with PBS, blocked (5% Donkey serum, 2% BSA and 0.1% Triton in PBS) and fixed with 4% Paraformaldehyde (PFA) 24 hour following activation. Cells were then stained with Gata3-FITC and T-bet-APC fluorochrome-labeled monoclonal mouse antibodies (purchased from Miltenyi Biotec) according to Miltenyi Biotec protocols. Samples were then collected using LSR-II flow cytometer and analyzed with FlowJo cell analysis software.

[3] = Circular dichroism spectroscopy with CDNN secondary structure analysis; format: physicochemical; settings: 25μM peptide in 5mM HEPES buffer with 1% LPC; for Antiparallel β-Sheet / Parallel β-Sheet / Random-coil / α-Helix / β-turn: CD 190–260 nm, CDNN, relative amount of structure out of 100%; for secondary structure in a membrane mimetic environment: CD
Description: Fig 6 Detection of the immune modulatory region within the HTLV FP. (A) Sequences of shorter peptides derived from the full length HTLV FP. (B) MOG35-55–antigen specific T-cells were activated by APCs in the presence of HTLV FP derived peptides at 10μM and proliferative responses were assessed as described above. […] The data is presented as mean inhibition of proliferation. n = 12. (C) MOG35-55–antigen specific T cells were activated by either (i) irradiated MOG35-55 presenting APCs (black), (ii) antibodies against CD3 and CD28 (white), or (iii) PMA and Ionomycin (gray) in the presence of HTLV FP5-13 and HIV FP5-13 at 10μM. Proliferative responses were assessed as described above. The HTLV FP inhibits T-cell proliferation induced either through the TCR or downstream from the TCR with equal potencies. The data is presented as mean inhibition of proliferation. n = 12. […] CD spectra were measured at 25μM in 5mM HEPES buffer containing 1% lyso-phosphatidylcholine (LPC). […] (E) MOG35-55–antigen specific T-cells were activated by APCs in the presence of HTLV FP5-13 D/L enantiomers at 10μM and proliferative responses were assessed as described above. Both HTLV FP5-13 enantiomers inhibit T-cells proliferation with equal potencies. The data is presented as mean inhibition of proliferation. n = 12. One-way ANOVA was used for statistical analysis. *P<0.05;**P<0.01;***P<0.001.

Sequence | inhibition of T-cell proliferation, activation by PMA and Ionomycin ([1]; n = 12) | inhibition of T-cell proliferation, activation by antibodies against CD3 and CD28 ([1]; n = 12) | inhibition of T-cell proliferation, activation by MOG35-55 presenting APCs ([1]; n = 12) | Antiparallel β-Sheet [3] [%] | Parallel β-Sheet [3] [%] | Random-coil [3] [%] | α-Helix [3] [%] | β-turn [3] [%] | secondary structure in a membrane mimetic environment [3] | other results
AVGIGALFLGFLGAAGSTMGARSMTLTVQARQL [HIV FP, HIV-1 gp41 fusion peptide, HXB2 isolate, reference compound] | decreased significantly when activation was downstream of TCRα and β | decreased significantly when activation was downstream of TCRα and β | inhibits T-cell proliferation with the same potency as the HIV FP |  |  |  |  |  |  | Gata3 expression (protein), 24 hours ([2]; 24 hours following activation): had no effect on Gata3 expression; T-bet expression (protein), 24 hours ([2]; 24 hours following activation): had no effect on T-bet expression; Gata3 expression (protein), 48 hours ([2]; 48 hours following activation): had no effect on Gata3 expression; T-bet expression (protein), 48 hours ([2]; 48 hours following activation): had no effect on T-bet expression; Gata3 expression (protein), 72 hours ([2]; 72 hours following activation): had no effect on Gata3 expression
AVGMVIFLLVLAIMAMTASVTAAATLVKQHATA [JDV FP, Jembrana disease virus fusion peptide, Tabanan/87 isolate] |  |  | showed no inhibitory activity |  |  |  |  |  |  | 
AVWLVSALA [HTLV FP5-13, segment 5-13 of the HTLV FP] | inhibited all three levels of activation | inhibited all three levels of activation |  | 6.7 | 5.2 | 17.3 | 54 | 16.8 | exhibited an α-helical structure | inhibition of T-cell proliferation, activation by MOG35-55 presenting APCs ([1]; n = 12, 10 µM): inhibited all three levels of activation; also recorded: inhibit T-cell proliferation with higher potency than HTLV FP9-22 and HTLV FP14-22; also recorded: inhibited T-cell proliferation with the same potency
GALFLGFLG [HIV FP5-13, reference compound] | significantly diminished when T-cells were activated using CD3 and CD28 antibodies or PMA and Ionomycin | significantly diminished when T-cells were activated using CD3 and CD28 antibodies or PMA and Ionomycin |  |  |  |  |  |  |  | 
MGAGVAGGI [HTLV FP14-22, segment 14-22 of the HTLV FP] |  |  | higher potency than HTLV FP9-22 and HTLV FP14-22 | 27.7 | 11.7 | 32.5 | 11.2 | 17.1 | found to be random coils | 
VAALTLGLALSVGLTGINVAVSALSHQRLTSLI [BLV FP, bovine leukemia virus fusion peptide, Japanese isolate of BLV-1] |  |  | significantly stronger than the BLV FP |  |  |  |  |  |  | 
VSALAMGAGVAGGI [HTLV FP9-22, segment 9-22 of the HTLV FP] |  |  | higher potency than HTLV FP9-22 and HTLV FP14-22 | 30.4 | 11.7 | 32.6 | 8.5 | 16.8 | found to be random coils | 
